{
  "source": "patent US10383806B2",
  "about": "“Compositions including sesamin, methods of making and using the same in skin anti-aging and skin lightening applications” (Access Business Group International LLC, priority 2015, dated 2019)",
  "type_in_all_cases": "cell-based",
  "key": {"[1]": {"tested_on": "Melan-a cells", "test": "Melanin inhibition assay in Melan-a cells", "conditions": "4 days, concentrations of FIG. 5", "protocol": "Melan-a cells seeded at a density of 5×10^4 cells per well were grown in a 24 well plate. Sesamin complex (S1) (at the concentrations indicated in the legend of FIG. 5) was dissolved in (DMSO) such that the final concentration of DMSO in the culture medium was maintained at 0.05%. Sesamin complex and Phenylthiourea (PTU) was added to the cells in triplicate and incubated for 2 days following which the cells were again treated with compounds supplemented with fresh medium. PTU at a concentration of 60 ug/ml was used as a positive inhibitor control in the melanin inhibition assay. Two days later, melanin was extracted and quantitated by normalizing with the protein content. After 4 days, melanin was extracted and cleared of the cell debris from each of the wells were dissolved by treating with 2N NaOH in 20% DMSO and incubating the samples for 60 min at 55° C. The melanin content in each sample was determined by measuring absorbance at 490 nm. Data were presented as % melanin content normalized to protein content in untreated wells compared to % melanin content extracted from samples."}, "[2]": {"target": "T1, Gal4-PPARγ-LBD fusion protein (Homo sapiens, UniProt P37231)", "T1 construct": "The PPARγ-LBD (residues 203-477) was PCR amplified from human MGC: 5041; expressed in transfected cells", "T1 sequence (P37231 203-477 isoform P37231-2)": "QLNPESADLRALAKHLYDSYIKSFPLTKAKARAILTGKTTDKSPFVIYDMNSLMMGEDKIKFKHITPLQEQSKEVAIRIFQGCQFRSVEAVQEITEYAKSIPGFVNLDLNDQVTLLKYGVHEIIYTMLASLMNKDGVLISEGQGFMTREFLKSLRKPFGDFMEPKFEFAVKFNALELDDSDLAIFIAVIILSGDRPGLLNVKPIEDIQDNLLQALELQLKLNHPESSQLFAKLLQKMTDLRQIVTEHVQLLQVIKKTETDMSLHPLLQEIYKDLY", "test": "PPARγ activation luciferase reporter assay (Gal4-PPARγ-LBD, CHO-K1 cells)", "conditions": "18-24 hours, FIG. 6, n=2", "protocol": "Troglitazone (positive control) was purchased from Sigma Corp. Sesamin sample was purchased from Virun Chemicals and a stock solution at a concentration of 100 mg/mL was prepared in 70% Dimethyl Sulfoxide (DMSO) and diluted to the indicated concentrations as shown in the figure. The final concentration of DMSO was maintained at 0.05% or lower. Stock solutions of troglitzone and sesamin samples were solubilized and diluted in DMSO prior to dilution in Dubelco's minimum essential media (DMEM) containing 0.5% Bovine serum Albumin (BSA) for testing. To study the activation of PPARγ in a luciferase reporter assay, a Gal4-PPARγ-ligand-binding domain (LBD) vector was created in a modified pF[…] (BIND) vector (Promega Inc). The PPARγ-LBD (residues 203-477) was PCR amplified from human MGC: 5041 (pSPORT6; Open Biosystems Inc.) and ligated into the pBIND3 vector forming a Gal4-PPARγ-LBD fusion protein. […] Luciferase was quantified using an activity assay from Biotium Inc. Briefly, at time of analysis, cells in white-walled 96-well plates were rinsed once using 50 μL of DPBS, then lysed with 20 μL of 1× passive lysis buffer. […] Reconstituted, room temperature D-luciferin was added (100 μL per well) and light emission was immediately read using an M-5 spectrophotometer (Molecular Devices, Inc.)."}, "[3]": {"tested_on": "antioxidant response elements", "test": "Anti-oxidant response element (ARE) luciferase reporter assay in stable HepG2 cells", "conditions": "48 hours, FIG. 4", "from_the_text": "Yet other embodiments relate to a method of decreasing a skin anti-inflammatory response comprising applying to the skin a composition in a cosmetically effective amount sufficient to decrease the skin anti-inflammatory response, wherein the composition comprises an amount of sesamin, individually or in combination with at least one other plant ingredient or plant extract from Pistacia (e.g., Pistacia lentiscus), Leontopodium (e.g., Leontopodium alpinium), Spirulina (e.g., Spirulina platensis), Oroxylum (e.g., Oroxylum indicum), Schizandra (e.g., Schizandra chinesis), Moringa (e.g., Moringa pterygosperma), Houttuynia (e.g., Houttuynia cordata), Isodon (e.g., Isodon japonicus), and Saxifraga (e.g., Saxifraga stolonifera), or mixtures thereof, and at least one pharmaceutically or cosmetically acceptable vehicle. […] Use of compositions that are capable of decreasing a skin anti-inflammatory response in the skin may result in improvement of the appearance of skin or at least one sign of aging in skin. Sesamin complex was dissolved in 70% DMSO and finally diluted […] in MEM containing Myrosinase (0.625 U/mL) and Ascorbic Acid (350 uM) and the final concentration of DMSO was 0.14%. […] The cells were grown in minimum essential media (MEM) with 10% fetal bovine serum and 150 ug/mL of hygromycin in a humidified atmosphere containing 5% CO2 at 37 C. For the assay, the cells were seeded at a density of 31,250 cells per well in a 96-well, white-walled, collagen coated plate. The following day, the media was removed and fresh growth media was added. After 24 hours, the cells were treated with test compounds for 48 hours (100 ug/mL, 50 ug/mL, 25 ug/mL, 12.5 ug/mL, and […]), lysed and the amount of luciferase produced was measured using a luciferase activity assay. Data were captured as relative luminescence units (RLUs) using an M5 Spectrophotometer (Molecular Devices, Inc)."}},
  "data": [
    {"smiles": "c1cc2c(cc1[C@H]1OC[C@H]3[C@@H]1CO[C@@H]3c1ccc3c(c1)OCO3)OCO2", "note": "[sesamin]", "values": [
      {"measurement": "melanin inhibition (% melanin content normalized to protein content)", "setting": "[1]", "value": "dose dependent melanin inhibition"},
      {"measurement": "activation of PPARγ (percent of control response)", "setting": "[2]; sesamin at 70% (μg/mL)", "value": "dose-dependent activation of PPARγ"},
      {"measurement": "activation of PPARγ (percent of control response)", "setting": "[2]; sesamin at 90% (μg/mL)", "value": "dose-dependent activation of PPARγ"},
      {"measurement": "anti-oxidant response (% Response)", "setting": "[3]; 50 ug/mL, second highest response", "value": "activation of anti-oxidant pathways"},
      {"measurement": "anti-oxidant response (% Response)", "setting": "[3]; 100 ug/mL", "value": "highest anti-oxidant response"},
      {"measurement": "anti-oxidant response (% Response, luciferase RLU normalized to untreated 0% and sulforophane 100%)", "setting": "[3]; HepG2 ARE-luciferase cells, 6.75-100 ug/mL", "value": "dose-dependent anti-oxidant response"}
    ]}
  ]
}
